From patent publication US20240261317A1, “METHODS OF TREATING MEDICAL CONDITIONS AND INHIBITING LINE1 REVERSE TRANSCRIPTASEUSING A SUBSTITUTED 4-FLUORO-2,5-DIHYDROFURANYL PHOSPHONIC ACID OR RELATED COMPOUND” (ROME Therapeutics, Inc., priority 2021, published 2024)
Each block holds one compound with its values, some of them ahead of it.

Columns and labels:
[1] = target: T1, HERV-K reverse transcriptase (2-596)-8His protein (Homo sapiens, UniProt V9H0F6); assay: Homogeneous time-resolved fluorescence (HTRF) HERV-K RT assay; format: biochemical; details: tested as tri(ammonium) salt, read-out: IC50 for inhibition of HERV-K reverse transcriptase
T1 construct: fused on or other part: C-terminal 8His tag
T1 sequence (V9H0F6 entry or part of it): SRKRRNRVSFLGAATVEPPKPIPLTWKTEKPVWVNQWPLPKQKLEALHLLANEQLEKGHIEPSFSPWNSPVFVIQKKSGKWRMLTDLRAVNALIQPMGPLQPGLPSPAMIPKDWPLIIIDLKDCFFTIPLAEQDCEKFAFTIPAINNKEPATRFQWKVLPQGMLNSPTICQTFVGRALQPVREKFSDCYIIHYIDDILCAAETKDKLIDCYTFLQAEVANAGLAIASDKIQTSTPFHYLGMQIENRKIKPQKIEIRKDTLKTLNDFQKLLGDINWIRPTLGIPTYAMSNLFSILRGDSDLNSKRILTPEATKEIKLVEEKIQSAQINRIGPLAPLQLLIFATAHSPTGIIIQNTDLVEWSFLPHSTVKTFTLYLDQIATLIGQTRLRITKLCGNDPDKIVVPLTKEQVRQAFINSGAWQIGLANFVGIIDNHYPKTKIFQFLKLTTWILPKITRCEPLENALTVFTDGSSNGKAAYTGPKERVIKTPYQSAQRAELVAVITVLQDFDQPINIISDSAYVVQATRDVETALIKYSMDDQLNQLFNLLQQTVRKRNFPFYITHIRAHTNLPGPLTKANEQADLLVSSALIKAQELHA
Protocol: The HERV-K reverse transcriptase homogeneous time-resolved fluorescence (HTRF) assay was performed in a 384-well format with HERV-K reverse transcriptase (2-596)-8His protein. Baculoviruses were created using Bac-to-Bac technology (Invitrogen). pFastBac donor plasmids containing HERV-K reverse transcriptase sequence (NCBI GenBank number AAC63291.1, J. Virology (1999) Vol. 73, No. 3, pp. 2365-2375) were transformed into DH10 Bac cells following the manufacturer's instructions. Recombinant bacmids were then isolated clonally and transfected into SF9 cells with lipofectin. HERV-K reverse transcriptase was expressed in the SF9 insect cells and then purified using immobilized metal affinity chromatography (IMAC) followed by size-exclusion chromatography (SEC). […]
(§1) After incubating at 25° C. for 30 minutes, the detection reagent 20 mM EDTA with streptavidin-terbium cryptate (Cisbio Bioassay) in the PPI buffer (Cisbio Bioassay) was added, and the mixture was incubated at 25° C. for 60 minutes. At the end of the incubation, fluorescence was read at ex/em=337/485 nm and ex/em=337/520 nm on an Envision 2104 plate reader (Perkin Elmer). The fluorescence ratio at 520/485 nm was used for the calculation. […] The IC50 was calculated by fitting the compound dose inhibition curve with a 4-parameter non-linear regression equation.

[2] = target: T2, recombinant MBP-tagged LINE1 protein (238-1061) (Homo sapiens, UniProt O00370); assay: Homogeneous time-resolved fluorescence (HTRF) LINE1 RT assay; format: biochemical; details: tested as tri(ammonium) salt, read-out: IC50 for inhibition of LINE1 reverse transcriptase
T2 construct: recombinant MBP-tagged LINE1 protein (238-1061); made in house
Protocol: The LINE1 reverse transcriptase homogeneous time-resolved fluorescence (HTRF) assay was performed with recombinant MBP-tagged LINE1 protein (238-1061) (generated and purified according to procedures in Dai L. et al. BMC Biochemistry 2011; 12:18) in a 384-well format. Test compound was serially diluted in DMSO and further diluted in the assay buffer (50 mM Tris-HCl, 50 mM KCl, 10 mM MgCl2, 10 mM DTT, pH 8.1) to achieve a final DMSO concentration of 1%. The serially diluted compound was mixed with 64 ng/well of LINE1 enzyme, 5 nM of pre-annealed template/biotin-primer pair (synthesized at Generay Biotechnology), 10 nM of Fluorescein-12-dATP fluorescent probe (Perkin Elmer), and 1 μM dGTP/dCTP/dTTP (Thermo Fisher Scientific) in the assay buffer. The template/biotin-primer sequences were as follows:
as §1, with “for 60” for “for 30”, “reagent (20” for “reagent 20”, “streptavidin-terbium cryptate, Cisbio” for “streptavidin-terbium cryptate (Cisbio”, “for 30” for “for 60”

[3] = target: T3, LINE1 reverse transcriptase (Homo sapiens, UniProt O00370); assay: Transient artificial-intron Cis LINE1 reporter assay (FLuc/RLuc ratio); format: cell-based; design: expressed in transfected cells; details: HEK 293 cells
Protocol: (§2) Intron-disrupted Firefly luciferase (FLuc) expression cassettes were generated as described by Xie, Y. et al. “Characterization of L1 retrotransposition with high-throughput dual-luciferase assays,” Nucleic Acid Res. (2011) Vol. 39, No. 3, e16. In addition, the plasmid contained an intact Renilla luciferase (RLuc) expression cassette on the vector backbone, in order to normalize transfection efficiency and measure potential cell toxicity.
(§3) HEK 293 cells were seeded in 96-well plates at 1,000 cells/well in 55 μL and grown for 24 hours. Cells were transfected with FuGeneHD (Promega) following the manufacturer's protocol. Each well received 0.133 ng plasmid, 0.4 μL FuGeneHD reagent, and 4.5 μL GlutaMAX-I-supplemented Opti-MEM I reduced-serum medium (Invitrogen). Cells were simultaneously treated with test compound serially diluted starting at 100 μM in a 3-fold dilution dose response.
(§4) Luminescence was measured using the Dual-Glo Luciferase Assay System (Promega) following the manufacturer's instructions. The ratio between FLuc and RLuc gene expression was used to report LINE1 activity.

[4] = target: T3, LINE1 reverse transcriptase; assay: Stable artificial-intron Cis LINE1 reporter assay in HeLa Tet-On 3G cells; format: cell-based; design: expressed in transfected cells; host or cells: HeLa Tet-On 3G (Takara, cat no 631183)
Description: A stable HeLa Tet-On 3G (Takara, cat no 631183) cell line expressing a bi-directional inducible LINE1 construct was generated as described in Xie, Y. et al. “Cell division promotes efficient retrotransposition in a stable L1 reporter cell line,” Mobile DNA (2013) 4:10. Single cell clones were screened for high Luciferase expression and the highest expression Firefly expressing clone was chosen for compound testing.
Test compounds were serially diluted in DMSO and spotted in 96-well plates. Subsequently the HeLa L1 artificial-intron reporter cells were plated into the compound-containing wells (8,000 cells/well), and the cells were induced for reporter expression with doxycycline (Sigma cat no D9891) at a final concentration of 500 ng/mL. Luminescence was measured 72 h after plating using the Dual-Glo Luciferase Assay System (Promega cat no E2940) following the manufacturer's instructions. The Firefly Luciferase activity was used to report LINE1 activity.

[5] = test system: HEK 293 cells; assay: Transient LINE1 reporter assay, Renilla luciferase (RLuc) control readout for potential cell toxicity; format: cell-based; details: even at the highest dose tested (100 μM), FIG. 1
Protocol: as §2, §3, §4

[6] = transient LINE1 reporter, Table 5 of Example 1, read-out: IC50
[7] = HeLa L1 artificial-intron reporter cells, doxycycline induced, 72 h, Firefly luciferase, read-out: IC50

IC50 [1]: 120 nM | IC50 [2]: 100 nM
SMILES: Nc1ncnc2c1ncn2[C@@H]1O[C@H](OCP(=O)(O)OP(=O)(O)OP(=O)(O)O)C=C1F [IV-1]

SMILES: CCOC(=O)[C@H](C)N[P@](=O)(CO[C@@H]1C=C(F)[C@H](n2cnc3c(N)ncnc32)O1)Oc1ccccc1 [II-1, ethyl ((S)-((((2R,5R)-5-(6-amino-9H-purin-9-yl)-4-fluoro-2,5-dihydrofuran-2-yl)oxy)methyl)(phenoxy)phosphoryl)-L-alaninate]
IC50 [3, 6]: < 50 nM | IC50 [4, 7]: < 50 nM

SMILES: CCOC(=O)[C@H](C)N[P@@](=O)(CO[C@@H]1C=C(F)[C@H](n2cnc3c(N)ncnc32)O1)Oc1ccccc1 [II-2, ethyl ((R)-((((2R,5R)-5-(6-amino-9H-purin-9-yl)-4-fluoro-2,5-dihydrofuran-2-yl)oxy)methyl)(phenoxy)phosphoryl)-L-alaninate]
IC50 [3, 6]: < 50 nM | IC50 [4, 7]: < 50 nM

IC50 [4, 7]: > 500 nM
SMILES: Nc1ncnc2c1ncn2[C@@H]1O[C@H](OCP(=O)(O)O)C=C1F [III-1, Sodium ((((2R,5R)-5-(6-amino-9H-purin-9-yl)-4-fluoro-2,5-dihydrofuran-2-yl)oxy)methyl)phosphonate]

IC50 ([3]; transient transfection, FIG. 1, read-out: IC50 for inhibition of FLuc (FF/RR)): 1000 nM
SMILES: Nc1ncnc2c1ncn2[C@@H]1O[C@H](OCP(=O)(O)O)C=C1F [Test Compound]
impact on RLuc expression (Renilla) [5]: without any material impact

IC50 [4, 7]: > 500 nM
SMILES: Nc1nc(F)nc2c1ncn2[C@@H]1O[C@H](OCP(=O)(O)O)C=C1F [Compound V-1, sodium ((((2R,5R)-5-(6-amino-2-fluoro-9H-purin-9-yl)-4-fluoro-2,5-dihydrofuran-2-yl)oxy)methyl)phosphonate]

SMILES: CCOC(=O)[C@H](C)NP(=O)(CO[C@@H]1C=C(F)[C@H](n2cnc3c(N)nc(F)nc32)O1)Oc1ccccc1 (stereo partly drawn) [Compound V-2, ethyl (2S)-2-[({[(2R,5R)-5-(6-amino-2-fluoropurin-9-yl)-4-fluoro-2,5-dihydrofuran-2-yl]oxy}methyl(phenoxy)phosphoryl)amino]propanoate]
IC50 [4]: > 500 nM
